Assay: LogD shake-flask, octanol and water
Assay type: physicochemical
Details: pH 7.4

## c1ccc(Cc2c[nH]c3ncc(-c4cnn(C5CCNCC5)c4)cc23)cc1 [Compound 6]
  reduction in logD (versus compound 5): over 1.5 log units
